Measurements published in publication PMC8068288, “Novel Thiol Containing Hybrid Antioxidant-Nitric Oxide Donor Small Molecules for Treatment of Glaucoma” (Antioxidants, 2021).
Like-named read-outs stand apart in the source and are kept apart here.

Legend:
[1] = Ocular biodistribution after SA-9 and SA-9 NPs eye drop; format: in vivo; conditions: topical, 30 µL of 2% SA-9 solution, mouse, 1 h after single eye drop of 2% SA-9 solution
NTM-5 cells [2] = test: Superoxide scavenging ratio in NTM-5 cell supernatant (pyrogallol assay), with or without TBHP; format: cell-based, human; conditions: for AUC0-3h of superoxide scavenging ratio: NTM-5 cell supernatant, 18 h treatment, 0.1-1000 µM
Protocol: The ROS scavenging ratio was determined using a chemical assay where WST-1 was used as superoxide scavenger produced by pyrogallol following a reported protocol. Briefly, the superoxide anion radical scavenging activity was determined spectrophotometrically by measuring the formation of WST-1 formazan at 450 nm. WST-1 (40 µL, 50 µM) was added to the compounds (or corresponding solution) in a final volume of 160 µL in 50 mM ammonium hydrogen carbonate buffer, 0.5 mM EDTA, pH 9.3. Reaction was launched by adding 40 µL 1 mM pyrogallol. The operation was based on the 96-well microplate, and measurement was performed at different time points under 37 °C by Cytation5 Microplate Reader. Baicalein (1 mM) was used as positive control. Compounds SA-2, SA-9, and SA-10 were used in concentrations ranging from 1 µM, 10 µM, 100 µM, and 1000 µM. The superoxide anion radical scavenging ratio % was calculated according to the following formula:Scavenging ratio (%) = A0 − (A1 − A2)/A0 × 100% […]
(§1) The experiments were repeated twice with four technical replicates.
Figure 2 Superoxide scavenging ability of SA compounds in buffer and cells. (a) The % of superoxide scavenging response from 1 mM concentration of SA-2, SA-9, and SA-10 in pyrogallol (Pyr, 1 mM) induced superoxide induction assay at different time points in buffer. The AUC0–2.5 h for SA-2, SA-9, and SA-10 were 1592 ± 37.87, 1355 ± 42.62, and 2350 ± 69.26, respectively. (b) Comparison of the % ROS scavenging activity of SA-2, SA-9, and SA-10 with control after 15 min of treatment of pyrogallol. (c) The superoxide scavenging ratio (%) after 18 h treatment of 10 µM concentration of SA-2, SA-9, and SA-10 to NTM-5 cell supernatant using pyrogallol induced superoxide induction assay at different time points. (d) The superoxide scavenging ratio (%) of 10 µM concentration of SA-2, SA-9, and SA-10 in NTM-5 cell supernatant. The cells were previously treated with 5.5 mM of TBHP for 30 min followed by SA compounds and incubated for 18 h. Control is untreated cells. Three technical replicates were used for each experiment and all experiments were repeated 2 times. * p < 0.05, ** p < 0.005, *** p < 0.001, **** p < 0.0001, One-way ANOVA for (b), and two-way ANOVA for (c,d).
Figure S1: Superoxide scavenging ability of SA compounds in buffer and cells. a) The % of superoxide scavenging response from different concentrations of SA-2, SA-9 and SA-10 in pyrogallol (1 µM, 10 µM, 100 µM and 1,000 µM) induced superoxide induction assay at 15 minutes time point in buffer solution. The […]
superoxide scavenging ratio (%) after 18h treatment of different concentrations (0.1 µM, 1 µM, 10 µM, 100 µM and 1,000 µM) of SA-2, SA-9 and SA-10 to NTM-5 cell supernatant with or without TBHP (5.5 mM) using pyrogallol induced superoxide induction assay at 3h time point. Control is untreated cells. The cells were previously treated with 5.5 mM of TBHP for 30 minutes followed by SA compounds and TBHP and incubated for 18h. Control is untreated cells. e) The AUC0-3h for SA-2, SA-9 and SA-10 were 18902 ± 2714, […]
for each experiment and all experiments were repeated 2 times. N = 3.
(1 picture or pasted object on this page, not shown here)

NTM-5 cells [3] = test: Total nitrite release by Griess assay in NTM-5 cell supernatant; format: cell-based, human
Protocol: The total nitrite released from the compounds in buffer and in cell supernatant were measured by Griess assay as reported by us previously. In brief, compounds (SA-2, SA-9, and SA-10) in buffer at different concentrations (1 mM, 500 µM, 250 µM 125 µM, 62.5 µM, 31.25 µM, and 15.625 µM) or supernatant collected from Human transformed trabecular meshwork (NTM-5) cells were added to a 96-well plate. 1% Sulphanilamide in 5% phosphoric acid and 0.1% N-1-napthylethylenediamine dihydrochloride (NED) were added to experimental samples sequentially at room temperature and away from light. SIN-1 was used as reference standard. UV Absorbances (Cytation 5) were measured at specific timepoints (0, 5 min, 10 min, 15 min, 30 min, 24 h, and 28 h) at 520 nm.
as §1

[4] = Hypochlorous acid (HOCl) radical scavenging assay (TNB) in buffer; format: biochemical
Protocol: This assay used the redox reaction between 5-thio-2-nitrobenzoic acid (TNB) and HOCl to form dithio-TNB. Using the method described previously, we assessed the % TNB remaining with or without treatment with SA compounds. Compounds SA-2, SA-9, and SA-10 were used in concentrations ranging from 0.1 µM, 1 µM, 10 µM, 100 µM, and 1000 µM. Lipoic acid (1 mM) was used as positive control.

[5] = Superoxide anion radical scavenging assay (pyrogallol/WST-1) in buffer; format: biochemical
Protocol: The ROS scavenging ratio was determined using a chemical assay where WST-1 was used as superoxide scavenger produced by pyrogallol following a reported protocol. Briefly, the superoxide anion radical scavenging activity was determined spectrophotometrically by measuring the formation of WST-1 formazan at 450 nm. WST-1 (40 µL, 50 µM) was added to the compounds (or corresponding solution) in a final volume of 160 µL in 50 mM ammonium hydrogen carbonate buffer, 0.5 mM EDTA, pH 9.3. Reaction was launched by adding 40 µL 1 mM pyrogallol. The operation was based on the 96-well microplate, and measurement was performed at different time points under 37 °C by Cytation5 Microplate Reader. Baicalein (1 mM) was used as positive control. Compounds SA-2, SA-9, and SA-10 were used in concentrations ranging from 1 µM, 10 µM, 100 µM, and 1000 µM. The superoxide anion radical scavenging ratio % was calculated according to the following formula:Scavenging ratio (%) = A0 − (A1 − A2)/A0 × 100%

Structure (SMILES): Cl.[NH-]c1c[n+](C2CCSCC2)no1 [SA-9, (3-(tetrahydro-2H-thiopyran-4-yl)-1,2,3-oxadiazol-3-ium-5-yl)amide hydrochloride]
- concentration at 1 h ([1]; choroid + sclera, read-out: concentration of SA-9 in choroid + sclera): 28900 ± 2500 ng/g
- concentration at 1 h ([1]; lens, read-out: concentration of SA-9 in lens): 20500 ± 8300 ng/g
- concentration at 1 h ([1]; optic nerve, read-out: concentration of SA-9 in ON): 1300 ± 90 ng/g
- concentration at 1 h ([1]; retina, read-out: concentration of SA-9 in retina): 8250 ± 10200 ng/g
- superoxide scavenging ability (ratio) (NTM-5 cells [2]; 10 µM for 18 h, NTM-5 cells insulted with TBHP, TBHP alone 2.5%): 20–25%
- fold prevention of the decrease in superoxide scavenging ability vs TBHP alone (NTM-5 cells [2]; 10 µM for 18 h, TBHP-treated NTM-5 cells): ~ 10 fold
- AUC0-3h of superoxide scavenging ratio (NTM-5 cells [2]; with TBHP 5.5 mM): 14120 ± 2023
- AUC0-3h of superoxide scavenging ratio (NTM-5 cells [2]; without TBHP): 21155 ± 1099
- NO released in NTM-5 cell supernatants (NTM-5 cells [3]; 28 h at 37 °C): dose dependently
- start of NO release (NTM-5 cells [3]; buffer solution and TM cells): > 24 h
- fold more potent than lipoic acid in HOCl scavenging ([4]; 0.1 µM vs. 1 mM lipoic acid, 30 min): 10,000 fold
- duration of HOCl scavenging effect ([4]; 0.1 µM–1000 µM in buffer): > 1 h
- AUC0–2.5 h of % superoxide scavenging response ([5]; 1 mM compound, pyrogallol 1 mM, buffer): 1355 ± 42.62
- earliest time of superoxide (O2−) radical scavenging ([5]; buffer solution and TM cells): 7 min
- superoxide radicals scavenged ([5]; buffer, dose response 1-1000 µM): 16–40%
- AUC0-15 of % superoxide scavenging response ([5]; different concentrations 1-1000 µM, 15 minutes time point, buffer): 5972± 834.9
